# Molecular target: PD-1/PD-L1 (Homo sapiens (Human), UniProt Q9NZQ7)
# Experiment: PD-1/PD-L1 Homogeneous Time-Resolved Fluorescence (HTRF) Binding Assay
# Conditions: recombinant human PD-1 (3 nM) and PD-L1 (10 nM), 25° C., PBS pH 7.4
# Method in brief: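 Fc-tagged human PD-1 (25-167, 3 nM) and His-tagged PD-L1 (19-238, 10 nM) preincubated with inhibitor 40 min in PBS pH 7.4, 0.05% Tween-20, 0.1% BSA, 1% DMSO, 25 °C. Binding detected by HTRF (Eu anti-IgG/APC anti-His, 665/620 nm) after 60 min; IC50 from percent control activity.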
# Chain of PD-1/PD-L1 (Q9NZQ7 19-238): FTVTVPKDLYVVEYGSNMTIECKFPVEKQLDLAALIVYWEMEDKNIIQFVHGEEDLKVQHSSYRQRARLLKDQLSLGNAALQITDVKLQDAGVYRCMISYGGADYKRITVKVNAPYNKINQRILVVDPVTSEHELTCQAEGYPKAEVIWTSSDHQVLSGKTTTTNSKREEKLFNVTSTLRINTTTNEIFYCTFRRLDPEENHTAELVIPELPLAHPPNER
row,Structure (SMILES),IC50 [nM]
1,"Cc1c(-c2nc3c(o2)CN(C(=O)CN(C)C(C)C)C3)cccc1-c1cccc(-c2nc3cc(CN4CC[C@@](C)(C(=O)O)C4)cc(C#N)c3o2)c1C [Example 248, (R)-1-((7-cyano-2-(3′-(5-(N-isopropyl-N-methylglycyl)-5,6-dihydro-4H-pyrrolo[3,4-d]oxazol-2-yl)-2,2'-dimethyl-[1,1′-biphenyl]-3-yl)benzo[d]oxazol-5-yl)methyl)-3-methylpyrrolidine-3-carboxylic acid]",≤ 10
2,"Cc1c(-c2nc3cc(CN4CC[C@@H](C(=O)O)C4)cc(C#N)c3o2)cccc1-c1cccc(-c2nc3c(s2)CN(C(=O)CN(C)C)C3)c1C [Example 105, (R)-1-((7-cyano-2-(3′-(5-(2-(dimethylamino)acetyl)-5,6-dihydro-4H-pyrrolo[3,4-d]thiazol-2-yl)-2,2′-dimethylbiphenyl-3-yl)benzo[d]oxazol-5-yl)methyl)pyrrolidine-3-carboxylic acid]",≤ 10
3,"Cc1c(-c2nc3c(o2)CN(C(=O)CCN(C)C)C3)cccc1-c1cccc(-c2nc3cc(CN4CC[C@@H](C(=O)O)C4)cc(C#N)c3o2)c1C [Example 125, (R)-1-((7-cyano-2-(3′-(5-(3-(dimethylamino)propanoyl)-5,6-dihydro-4H-pyrrolo[3,4-d]oxazol-2-yl)-2,2′-dimethyl-[1,1′-biphenyl]-3-yl)benzo[d]oxazol-5-yl)methyl)pyrrolidine-3-carboxylic acid]",≤ 10
4,"CCN(C)CC(=O)N1Cc2nc(-c3cccc(-c4cccc(-c5nc6cc(CN7CC8(C(=O)O)CC7C8)cc(C#N)c6o5)c4C)c3C)sc2C1 [Example 220, 2-((7-cyano-2-(3′-(5-(2-(ethyl(methyl)amino)acetyl)-5,6-dihydro-4H-pyrrolo[3,4-d]thiazol-2-yl)-2,2′-dimethylbiphenyl-3-yl)benzo[d]oxazol-5-yl)methyl)-2-azabicyclo[2.1.1]hexane-4-carboxylic acid]",≤ 10
5,"Cc1c(-c2nc3cc(CN[C@H]4CC[C@H](C(=O)O)CC4)cc(C#N)c3o2)cccc1-c1cccc(NC(=O)c2nc3c(n2C)CCN(C)C3)c1Cl [Example 91, (1R,4R)-4-((2-(2′-chloro-3′-(1,5-dimethyl-4,5,6,7-tetrahydro-1H-imidazo[4,5-c]pyridine-2-carboxamido)-2-methylbiphenyl-3-yl)-7-cyanobenzo[d]oxazol-5-yl)methylamino)cyclohexanecarboxylic acid]",≤ 10
6,"Cc1c(-c2nc3c(o2)CN(C(=O)CN(C)C)C3)cccc1-c1cccc(-c2nc3cc(CN4CCC(C(=O)O)CC4)cc(C#N)c3o2)c1C [Example 246, 1-((7-cyano-2-(3′-(5-(dimethylglycyl)-5,6-dihydro-4H-pyrrolo[3,4-d]oxazol-2-yl)-2,2′-dimethyl-[1,1′-biphenyl]-3-yl)benzo[d]oxazol-5-yl)methyl)piperidine-4-carboxylic acid]",≤ 10
7,"Cc1c(-c2nc3cc(CN4CC[C@@](C)(C(=O)O)C4)cc(C#N)c3o2)cccc1-c1cccc(-c2nc3c(s2)CN(C(=O)CN(C)[C@@H](C)CO)C3)c1C [Example 226, (R)-1-((7-cyano-2-(3′-(5-(2-(((S)-1-hydroxypropan-2-yl)(methyl)amino)acetyl)-5,6-dihydro-4H-pyrrolo[3,4-d]thiazol-2-yl)-2,2′-dimethylbiphenyl-3-yl)benzo[d]oxazol-5-yl)methyl)-3-methylpyrrolidine-3-carboxylic acid]",≤ 10
8,"Cc1c(NC(=O)c2nc3c(n2C)CCN(C2CC(F)(F)C2)C3)cccc1-c1cccc(-c2nc3cc(CN4CC[C@H](C(=O)O)C4)cc(C#N)c3o2)c1C [Example 40, (S)-1-((7-cyano-2-(3′-(5-(3,3-difluorocyclobutyl)-1-methyl-4,5,6,7-tetrahydro-1H-imidazo[4,5-c]pyridine-2-carboxamido)-2,2′-dimethylbiphenyl-3-yl)benzo[d]oxazol-5-yl)methyl)pyrrolidine-3-carboxylic acid]",10 to 100
9,"Cc1c(Nc2nccc3cc(CN4CC[C@H](O)C4)cnc23)cccc1-c1cccc(-c2nc3cc(CN4CCCC[C@H]4C(=O)O)cc(Cl)c3o2)c1C [Example 5, (S)-1-((7-chloro-2-(3′-((3-(((S)-3-hydroxypyrrolidin-1-yl)methyl)-1,7-naphthyridin-8-yl)amino)-2,2′-dimethyl-[1,1′-biphenyl]-3-yl)benzo[d]oxazol-5-yl)methyl)piperidine-2-carboxylic acid]",≤ 10
10,"Cc1c(-c2nc3c(o2)CNCC3)cccc1-c1cccc(-c2nc3cc(CN4CC[C@@H](C(=O)O)C4)cc(Cl)c3o2)c1C [Example 78, (R)-1-((7-chloro-2-(2,2′-dimethyl-3′-(4,5,6,7-tetrahydrooxazolo[5,4-c]pyridin-2-yl)-[1,1′-biphenyl]-3-yl)benzo[d]oxazol-5-yl)methyl)pyrrolidine-3-carboxylic acid]",≤ 10
11,"Cc1c(-c2nc3cc(CN4CC[C@@H](C(=O)O)C4)cc(C#N)c3o2)cccc1-c1cccc(-c2nc3c(s2)CN(C(=O)CN2CCC2)C3)c1C [Example 113, (R)-1-((2-(3′-(5-(2-(azetidin-1-yl)acetyl)-5,6-dihydro-4H-pyrrolo[3,4-d]thiazol-2-yl)-2,2′-dimethylbiphenyl-3-yl)-7-cyanobenzo[d]oxazol-5-yl)methyl)pyrrolidine-3-carboxylic acid]",≤ 10
12,"Cc1c(-c2nc3c(o2)CN(C(=O)CN(C)C)C3)cccc1-c1cccc(-c2nc3cc(CN4CC[C@@H](C(=O)O)C4)cc(C#N)c3o2)c1C [Example 122, (R)-1-((7-cyano-2-(3′-(5-(dimethylglycyl)-5,6-dihydro-4H-pyrrolo[3,4-d]oxazol-2-yl)-2,2′-dimethyl-[1,1′-biphenyl]-3-yl)benzo[d]oxazol-5-yl)methyl)pyrrolidine-3-carboxylic acid]",≤ 10
13,"Cc1c(-c2nc3cc(CN4CC[C@@H](O)C4)cc(C#N)c3o2)cccc1-c1cccc(NC(=O)c2nc3c(n2C)CCN(Cc2ccc(B(O)O)cc2)C3)c1Cl [Example 240, (R)-4-((2-(2-chloro-3′-(7-cyano-5-((3-hydroxypyrrolidin-1-yl)methyl)benzo[d]oxazol-2-yl)-2′-methylbiphenyl-3-ylcarbamoyl)-1-methyl-6,7-dihydro-1H-imidazo[4,5-c]pyridin-5(4H)-yl)methyl)phenylboronic acid]",≤ 10
14,"Cc1c(Nc2nccc3cc(CN4CC[C@H](O)C4)cnc23)cccc1-c1cccc(-c2nc3cc(CN4CC[C@H](C(=O)O)C4)cc(Cl)c3o2)c1C [Example 17, (S)-1-((7-chloro-2-(3′-(3-(((S)-3-hydroxypyrrolidin-1-yl)methyl)-1,7-naphthyridin-8-ylamino)-2,2′-dimethylbiphenyl-3-yl)benzo[d]oxazol-5-yl)methyl)pyrrolidine-3-carboxylic acid]",≤ 10
15,"Cc1c(-c2nc3cc(CN4CC[C@@H](C(=O)O)C4)cc(C#N)c3o2)cccc1-c1cccc(-n2cc3c(n2)CN(C(C)C)CC3)c1Cl [Example 87, (R)-1-((2-(2′-chloro-3′-(6-isopropyl-4,5,6,7-tetrahydro-2H-pyrazolo[3,4-c]pyridin-2-yl)-2-methylbiphenyl-3-yl)-7-cyanobenzo[d]oxazol-5-yl)methyl)pyrrolidine-3-carboxylic acid]",≤ 10
16,"Cc1c(-c2nc3cc(CN4CC[C@H](C(=O)O)C4)cc(C#N)c3o2)cccc1-c1cccc(NC(=O)c2nc3c(n2C)CN(C)C3)c1Cl [Example 94, (S)-1-((2-(2′-chloro-3′-(1,5-dimethyl-1,4,5,6-tetrahydropyrrolo[3,4-d]imidazole-2-carboxamido)-2-methylbiphenyl-3-yl)-7-cyanobenzo[d]oxazol-5-yl)methyl)pyrrolidine-3-carboxylic acid]",≤ 10
17,"Cc1c(Nc2nccc3cc(CNC[C@@H](C)O)cnc23)cccc1-c1cccc(-c2nc3cc(CN4CC[C@@H](C(=O)O)C4)cc(C#N)c3o2)c1C [Example 147, (R)-1-((7-cyano-2-(3′-((3-((((R)-2-hydroxypropyl)amino)methyl)-1,7-naphthyridin-8-yl)amino)-2,2′-dimethyl-[1,1′-biphenyl]-3-yl)benzo[d]oxazol-5-yl)methyl)pyrrolidine-3-carboxylic acid]",≤ 10
18,"Cc1c(Nc2nccc3cc(CNCC4(O)CC4)cnc23)cccc1-c1cccc(-c2nc3cc(CN4CC[C@@](C)(C(=O)O)C4)cc(C#N)c3o2)c1C [Example 199, (R)-1-((7-cyano-2-(3′-(3-(((1-hydroxycyclopropyl)methylamino)methyl)-1,7-naphthyridin-8-ylamino)-2,2′-dimethylbiphenyl-3-yl)benzo[d]oxazol-5-yl)methyl)-3-methylpyrrolidine-3-carboxylic acid]",≤ 10
19,"Cc1c(-c2nc3cc(CN4CC[C@@H](C(=O)O)C4)cc(C#N)c3o2)cccc1-c1cccc(-n2cc3c(n2)CN(C(C)C)C3)c1Cl [Example 56, (R)-1-((2-(2′-chloro-3′-(5-isopropyl-5,6-dihydropyrrolo[3,4-c]pyrazol-2(4H)-yl)-2-methylbiphenyl-3-yl)-7-cyanobenzo[d]oxazol-5-yl)methyl)pyrrolidine-3-carboxylic acid]",≤ 10
20,"CNC1CCN(c2cccc(-c3cccc(-c4nc5cc(CN6CC[C@@H](C(=O)O)C6)cc(Cl)c5o4)c3C)c2Cl)CC1 [Example 43, (R)-1-((7-chloro-2-(2′-chloro-2-methyl-3′-(4-(methylamino)piperidin-1-yl)biphenyl-3-yl)benzo[d]oxazol-5-yl)methyl)pyrrolidine-3-carboxylic acid]",≤ 10
21,"Cc1c(-c2nc3c(o2)CN(C(=O)[C@@H]2CCCN2C)C3)cccc1-c1cccc(-c2nc3cc(CN4CC[C@@H](C(=O)O)C4)cc(C#N)c3o2)c1C [Example 124, (R)-1-((7-cyano-2-(2,2′-dimethyl-3′-(5-(methyl-L-prolyl)-5,6-dihydro-4H-pyrrolo[3,4-d]oxazol-2-yl)-[1,1′-biphenyl]-3-yl)benzo[d]oxazol-5-yl)methyl)pyrrolidine-3-carboxylic acid]",≤ 10
22,"Cc1c(Nc2nccc3cc(C4CCCN4)cnc23)cccc1-c1cccc(-c2nc3cc(CN4CC[C@@H](C(=O)O)C4)cc(C#N)c3o2)c1C (single isomer, unassigned) [Example 99]",≤ 10

# From patent US10308644B2, “Heterocyclic compounds as immunomodulators” (Incyte Corporation, priority 2016, dated 2019)
